# “Also recorded” adds a separate entry of the source. Where two headings read alike, the source gives them in different places.
# What was measured:
# [1] = tested on: embryonic day 13 or 14 chick DRG neurons; assay: Neurite outgrowth assay, E13/E14 chick DRG neurons; format: cell-based, chicken; conditions: 20 μM
# Experimental: To test the ability of the “hit” compounds to promote neurite outgrowth, a neurite outgrowth assay was performed using each of these compounds. Dorsal root ganglia (DRG) were removed from chicken embryos at embryonic day 13 or 14, dissociated by trituration after 30 min incubation in 0.5% collagenase, and plated on laminin-coated 96-well tissue culture plates in DMEM with 10% fetal bovine serum containing 20 μM of the test compound. After two to four hours of incubation, the cells were fixed in 4% formaldehyde in phosphate buffered saline (PBS), washed in PBS, and blocked for 1 hour in PBS with 0.1% triton X-100 and 10% goat serum. The cells were incubated in rabbit anti-beta-3-tubulin (1:500) in PBS overnight and then washed 3 times with PBS. The cells were then incubated in Alexa-fluor 488 goat anti-rabbit IgG (1:500) for 6 hrs, washed with PBS, and imaged at 10× with an ImagExpress automated microscope (Molecular Devices, Inc.). Neurite outgrowth was measured with AcuityExpress software (Molecular Devices, Inc.).
# [2] = tested on: Nogo receptor:Nogo ligand (Nogo 66) interaction; assay: DELFIA assay of Fc-NgR:Ng66 interaction; format: binding
# Experimental: ELISA and DELFIA assays were then performed to evaluate the ability of the small molecules that were identified as “hits” in the AlphaScreens to inhibit the interaction of NgR and Nogo ligand. In the DELFIA Assay, 96 well streptavidin coated plates were blocked overnight with PBS and 10 mg/ml bovine serum albumin (BSA) (200 μl). The wells were then coated for 1.5 hours with sonicated HBH (Hanks Balanced Salt Solution/0.1 M HEPES/1 mg/ml BSA) containing Nogo 66 (B66) (0.5 μl of 10 mM/10 ml HBH) (50 μl) and then washed 4 times with 200 μl of HBH. The solution containing the inhibitor compound (50 μl in HBH) was added along with 1% FcNgR solution in HBH (50 μl), and the solution was incubated for 2 hours. The wells were washed 5 times with HBH. Alkaline phosphatase (AP) conjugated mouse anti-rat antibody (1:2500) was added and the wells were then washed 5 times with DELFIA wash buffer. The Europium (Eu) anti-mouse antibody was then added in Perlin Elmer Assay, buffer (100 μg/ml) (150 μl) and the wells were again washed 5 times with DELFIA wash buffer. The enhancer solution was added (100 μl) and the plate was read with the Perkin Elmer Victor 5 instrument 15 minutes later. (FIG. 10B) The results from the DELFIA assay indicate that compounds HTS08871, KM08071, and 503749, as well as the positive control, NEP33, inhibit the Nogo receptor:Nogo ligand (Nogo 66) interaction. (FIGS. 10D and 11A-C).
# [3] = tested on: postnatal day 15 (P15) wild type mouse DRG neurons; assay: Neurite outgrowth, P15 wild type mouse DRG neurons; format: cell-based; conditions: 24 hours
# Experimental: (§1) However, the inhibition of neurite outgrowth by the compound S is believed to be independent of its interaction with the Nogo receptor-Nogo ligand complex. Dorsal root ganglia (DRG) were removed from wild type or NgR1 knockout mouse pups at postnatal day 15, dissociated by trituration after 30 min incubation in 0.5% collagenase, plated on laminin-coated 96-well tissue culture plates in DMEM with 10% fetal bovine serum and B27. After 24 hours, cells were fixed in 4% formaldehyde in phosphate buffered saline (PBS), washed in PBS, and blocked for 1 hour in PBS with 0.1% triton X-100 and 10% goat serum. The cells were then incubated in rabbit anti-beta-3-tubulin (1:500) in PBS overnight. After washing 3 times, the cells were incubated in Alexa-fluor 488 goat anti-rabbit IgG (1:500) for 6 hrs, washed with PBS, and imaged at 10× with an ImagExpress automated microscope (Molecular Devices, Inc.). Neurite outgrowth was measured with AcuityExpress software (Molecular Devices, Inc.).
# [4] = tested on: postnatal day 15 (P15) NgR1 knockout mouse DRG neurons; assay: Neurite outgrowth, P15 NgR1 knockout mouse DRG neurons; format: cell-based; conditions: 24 hours
# Experimental: as §1
compound,measurement,setting,value
"N#Cc1ccc(CN2C(=O)CSC2=S)cc1 [S, 4-[(4-oxo-2-thioxo-1,3-thiazolan-3-yl)methyl]benzonitrile]",neurite outgrowth compared to the DMSO control,"[1]; E13 or E14 chick DRG, two to four hours",inhibited neurite outgrowth
same,"basal neurite outgrowth, E14 chick DRG neurons",[1]; E14,no basal neurite outgrowth
same,"inhibition of Nogo receptor:Nogo 66 interaction signal, DELFIA",[2],dose dependent signal inhibition
same,"inhibition of Nogo receptor:Nogo 66 interaction signal, DELFIA",[2]; listed as 503749,inhibit
same,"neurite outgrowth, wild type mice",[3],inhibits neurite outgrowth; also recorded: inhibitory effect
same,"neurite outgrowth, NgR1 knockout mice",[4],inhibits neurite outgrowth; also recorded: inhibitory effect
